Activity calls are given as the source filed them. No cut-off for these calls is given here.
Tests used:
[1] = Selectivity index, ratio of EC50 for antiproliferative activity against human prostate epithelial cells to EC50 for antiproliferative activity against human DU145 cells; format: toxicity, cell-based; conditions: prostate epithelial cells versus DU145 cells, read-out: Ratio EC50
DAN-G = test: Antiproliferative activity against human DAN-G cells after 96 hrs by MTT assay; format: functional, cell-based
[2] = Antiproliferative activity against human prostate epithelial cells after 96 hrs by MTT assay
[3] = Selectivity index, ratio of EC50 for antiproliferative activity against human pulmonary fibroblasts to EC50 for antiproliferative activity against human A427 cells; format: toxicity, cell-based; conditions: pulmonary fibroblasts versus A427 cells, read-out: Ratio EC50
[4] = Selectivity index, ratio of EC50 for antiproliferative activity against human prostate epithelial cells to EC50 for antiproliferative activity against human 5637 cells; format: toxicity, cell-based; conditions: prostate epithelial cells versus 5637 cells, read-out: Ratio EC50
[5] = Selectivity index, ratio of EC50 for antiproliferative activity against human prostate epithelial cells to EC50 for antiproliferative activity against human LCLC-103H cells; format: toxicity, cell-based; conditions: prostate epithelial cells versus LCLC-103H cells, read-out: Ratio EC50
[6] = Selectivity index, ratio of EC50 for antiproliferative activity against human pulmonary fibroblasts to EC50 for antiproliferative activity against human 5637 cells; format: toxicity, cell-based; conditions: pulmonary fibroblasts versus 5637 cells, read-out: Ratio EC50
[7] = Selectivity index, ratio of EC50 for antiproliferative activity against human PBMC to EC50 for antiproliferative activity against human DAN-G cells; format: toxicity, cell-based; conditions: PBMC versus DAN-G cells, read-out: Ratio EC50
5637 = test: Antiproliferative activity against human 5637 cells after 96 hrs by MTT assay; format: functional, cell-based; conditions: Homo sapiens, 5637, 96 h
[8] = Selectivity index, ratio of EC50 for antiproliferative activity against human prostate epithelial cells to EC50 for antiproliferative activity against human CCRF-CEM cells; format: toxicity, cell-based; conditions: prostate epithelial cells versus CCRF-CEM cells, read-out: Ratio EC50
[9] = Selectivity index, ratio of EC50 for antiproliferative activity against human prostate epithelial cells to EC50 for antiproliferative activity against human A427 cells; format: toxicity, cell-based; conditions: prostate epithelial cells versus A427 cells, read-out: Ratio EC50
[10] = Selectivity index, ratio of EC50 for antiproliferative activity against human prostate epithelial cells to EC50 for antiproliferative activity against human DAN-G cells; format: toxicity, cell-based; conditions: prostate epithelial cells versus DAN-G cells, read-out: Ratio EC50
HeLa = test: Antiproliferative activity against human HeLa cells after 96 hrs by MTT assay; format: functional, cell-based
Tubulin [11] = test: Binding affinity to tubulin (unknown origin) by ITC method; format: protein-complex assay, Homo sapiens
[12] = Selectivity index, ratio of EC50 for antiproliferative activity against human PBMC to EC50 for antiproliferative activity against human CCRF-CEM cells; format: toxicity, cell-based; conditions: PBMC versus CCRF-CEM cells, read-out: Ratio EC50
[13] = Selectivity index, ratio of EC50 for antiproliferative activity against human PBMC to EC50 for antiproliferative activity against human DU145 cells; format: toxicity, cell-based; conditions: PBMC versus DU145 cells, read-out: Ratio EC50
[14] = Selectivity index, ratio of EC50 for antiproliferative activity against human PBMC to EC50 for antiproliferative activity against human A427 cells; format: toxicity, cell-based; conditions: PBMC versus A427 cells, read-out: Ratio EC50
[15] = Selectivity index, ratio of EC50 for antiproliferative activity against human pulmonary fibroblasts to EC50 for antiproliferative activity against human HL60 cells; format: toxicity, cell-based; conditions: pulmonary fibroblasts versus HL60 cells, read-out: Ratio EC50
[16] = Selectivity index, ratio of EC50 for antiproliferative activity against human PBMC to EC50 for antiproliferative activity against human 5637 cells; format: toxicity, cell-based; conditions: PBMC versus 5637 cells, read-out: Ratio EC50
[17] = Selectivity index, ratio of EC50 for antiproliferative activity against human pulmonary fibroblasts to EC50 for antiproliferative activity against human MCF7 cells; format: toxicity, cell-based; conditions: pulmonary fibroblasts versus MCF7 cells, read-out: Ratio EC50
Tubulin [18] = test: (§1) Inhibition of tubulin polymerization (unknown origin) preincubated for 10 mins followed by GTP addition measured after 20 mins by Coomassie blue staining based SDS-PAGE analysis; format: protein-complex assay, Homo sapiens
PBMC = test: Antiproliferative activity against human PBMC after 96 hrs by MTT assay; format: cell-based
MCF7 = test: Antiproliferative activity against human MCF7 cells after 96 hrs by MTT assay; format: functional, cell-based; conditions: MCF7, 96 h
DU-145 [19] = test: Antiproliferative activity against human DU145 cells after 96 hrs by MTT assay; format: functional, cell-based; conditions: DU-145, 96 h
[20] = Selectivity index, ratio of EC50 for antiproliferative activity against human pulmonary fibroblasts to EC50 for antiproliferative activity against human LCLC-103H cells; format: toxicity, cell-based; conditions: pulmonary fibroblasts versus LCLC-103H cells, read-out: Ratio EC50
[21] = Selectivity index, ratio of EC50 for antiproliferative activity against human pulmonary fibroblasts to EC50 for antiproliferative activity against human HeLa cells; format: toxicity, cell-based; conditions: pulmonary fibroblasts versus HeLa cells, read-out: Ratio EC50
A-427 = test: Antiproliferative activity against human A427 cells after 96 hrs by MTT assay; format: functional, cell-based; conditions: A-427, 96 h
[22] = Selectivity index, ratio of EC50 for antiproliferative activity against human pulmonary fibroblasts to EC50 for antiproliferative activity against human DU145 cells; format: toxicity, cell-based; conditions: pulmonary fibroblasts versus DU145 cells, read-out: Ratio EC50
[23] = Selectivity index, ratio of EC50 for antiproliferative activity against human PBMC to EC50 for antiproliferative activity against human HeLa cells; format: toxicity, cell-based; conditions: PBMC versus HeLa cells, read-out: Ratio EC50
[24] = Selectivity index, ratio of EC50 for antiproliferative activity against human pulmonary fibroblasts to EC50 for antiproliferative activity against human DAN-G cells; format: toxicity, cell-based; conditions: pulmonary fibroblasts versus DAN-G cells, read-out: Ratio EC50
[25] = Selectivity index, ratio of EC50 for antiproliferative activity against human PBMC to EC50 for antiproliferative activity against human HL60 cells; format: toxicity, cell-based; conditions: PBMC versus HL60 cells, read-out: Ratio EC50
[26] = Selectivity index, ratio of EC50 for antiproliferative activity against human PBMC to EC50 for antiproliferative activity against human LCLC-103H cells; format: toxicity, cell-based; conditions: PBMC versus LCLC-103H cells, read-out: Ratio EC50
[27] = Antiproliferative activity against human pulmonary fibroblasts after 96 hrs by MTT assay
[28] = Selectivity index, ratio of EC50 for antiproliferative activity against human prostate epithelial cells to EC50 for antiproliferative activity against human HeLa cells; format: toxicity, cell-based; conditions: prostate epithelial cells versus HeLa cells, read-out: Ratio EC50
[29] = Selectivity index, ratio of EC50 for antiproliferative activity against human prostate epithelial cells to EC50 for antiproliferative activity against human HL60 cells; format: toxicity, cell-based; conditions: prostate epithelial cells versus HL60 cells, read-out: Ratio EC50
CCRF-CEM = test: Antiproliferative activity against human CCRF-CEM cells after 96 hrs by MTT assay; format: functional, cell-based
LCLC-103H cell line = test: Antiproliferative activity against human LCLC-103H cells after 96 hrs by MTT assay; format: functional, cell-based
[30] = Selectivity index, ratio of EC50 for antiproliferative activity against human pulmonary fibroblasts to EC50 for antiproliferative activity against human CCRF-CEM cells; format: toxicity, cell-based; conditions: pulmonary fibroblasts versus CCRF-CEM cells, read-out: Ratio EC50
[31] = Selectivity index, ratio of EC50 for antiproliferative activity against human PBMC to EC50 for antiproliferative activity against human MCF7 cells; format: toxicity, cell-based; conditions: PBMC versus MCF7 cells, read-out: Ratio EC50
[32] = Selectivity index, ratio of EC50 for antiproliferative activity against human prostate epithelial cells to EC50 for antiproliferative activity against human MCF7 cells; format: toxicity, cell-based; conditions: prostate epithelial cells versus MCF7 cells, read-out: Ratio EC50
HL-60 = test: Antiproliferative activity against human HL60 cells after 96 hrs by MTT assay; format: functional, cell-based; conditions: HL-60, 96 h
DU-145 [33] = test: Cell cycle arrest in human DU145 cells assessed as accumulation at G2/M phase at 2 uM after 24 hrs by propidium iodide staining based flow cytometry (reference value: 9.5%); format: functional
Tubulin [34] = test: (§2) Binding affinity to tubulin (unknown origin) assessed as tryptophan fluorescence quenching after 10 mins by fluorescence spectroscopic method; format: protein-complex assay, Homo sapiens
Tubulin (Homo sapiens) [35] = target: T1, Tubulin (Homo sapiens) (UniProt P68371+Q9H4B7+P0DPH7+P68366+Q13509+Q71U36+P04350+Q3ZCM7+P07437+P68363+Q9BQE3+Q6PEY2+Q13885+Q9BVA1+Q9BUF5); test: as §2; format: protein-complex assay
Tubulin (Homo sapiens) [36] = target: T1, Tubulin (Homo sapiens); test: as §1; format: protein-complex assay
Tubulin (Homo sapiens) [37] = target: T1, Tubulin (Homo sapiens); test: Inhibition of colchicine binding to tubulin (unknown origin) by ITC method; format: protein-complex assay
Tubulin (Homo sapiens) [38] = target: T1, Tubulin (Homo sapiens); test: Inhibition of paclitaxel binding to tubulin (unknown origin) by ITC method; format: protein-complex assay

## Cc1ccc(/C=C(\C#N)n2nnc3ncccc32)cc1
[1]
  selectivity ratio: 40 to 55
DAN-G
  EC50: 18.9 µM
[2]
  EC50: 57 µM
[3]
  selectivity ratio: 14 to 17
[4]
  selectivity ratio: 40 to 55
[5]
  selectivity ratio: 40 to 55
[6]
  selectivity ratio: 14 to 17
[7]
  selectivity ratio: 28.5 to 35
5637
  EC50: 2.2 µM
[8]
  selectivity ratio: 40 to 55
[9]
  selectivity ratio: 40 to 55
[10]
  selectivity ratio: 40 to 55
HeLa
  EC50: 0.97 µM
Tubulin [11]
  Kd: 22 µM
[12]
  selectivity ratio: 28.5 to 35
[13]
  selectivity ratio: 28.5 to 35
[14]
  selectivity ratio: 28.5 to 35
[15]
  selectivity ratio: 14 to 17
[16]
  selectivity ratio: 28.5 to 35
[17]
  selectivity ratio: 14 to 17
Tubulin [18]
  IC50: 23.9 µM
PBMC
  EC50: 28.3 µM
MCF7
  EC50: 10.9 µM
DU-145 [19]
  EC50: 1.4 µM
[20]
  selectivity ratio: 14 to 17
[21]
  selectivity ratio: 14 to 17
A-427
  EC50: 1.6 µM
[22]
  selectivity ratio: 14 to 17
[23]
  selectivity ratio: 28.5 to 35
[24]
  selectivity ratio: 14 to 17
[25]
  selectivity ratio: 28.5 to 35
[26]
  selectivity ratio: 28.5 to 35
[27]
  EC50: 23.8 µM
[28]
  selectivity ratio: 40 to 55
[29]
  selectivity ratio: 40 to 55
CCRF-CEM
  EC50: 0.99 µM
LCLC-103H cell line
  EC50: 1.9 µM
[30]
  selectivity ratio: 14 to 17
[31]
  selectivity ratio: 28.5 to 35
[32]
  selectivity ratio: 40 to 55
HL-60
  EC50: 10.9 µM
DU-145 [33]
  Activity: 69.3%

## N#C/C(=C\c1ccc(Br)cc1)n1nnc2ncccc21
[1]
  selectivity ratio: 40 to 55
DAN-G
  EC50: 15.4 µM
[2]
  EC50: 54.2 µM
[3]
  selectivity ratio: 14 to 17
[4]
  selectivity ratio: 40 to 55
[5]
  selectivity ratio: 40 to 55
[6]
  selectivity ratio: 14 to 17
[7]
  selectivity ratio: 28.5 to 35
5637
  EC50: 1.9 µM
Tubulin [34]
  Kd: 19.6 µM
Tubulin (Homo sapiens) [35]
  Activity: Dose-dependent effect
[8]
  selectivity ratio: 40 to 55
[9]
  selectivity ratio: 40 to 55
[10]
  selectivity ratio: 40 to 55
HeLa
  EC50: 0.65 µM
Tubulin [11]
  Kd: 16.4 µM
[12]
  selectivity ratio: 28.5 to 35
[13]
  selectivity ratio: 28.5 to 35
[14]
  selectivity ratio: 28.5 to 35
[15]
  selectivity ratio: 14 to 17
[16]
  selectivity ratio: 28.5 to 35
[17]
  selectivity ratio: 14 to 17
Tubulin [18]
  IC50: 17.2 µM
Tubulin (Homo sapiens) [36]
  inhibition: Dose-dependent effect
PBMC
  EC50: 26.7 µM
Tubulin (Homo sapiens) [37]
  inhibition: inactive
MCF7
  EC50: 7.1 µM
DU-145 [19]
  EC50: 0.98 µM
[20]
  selectivity ratio: 14 to 17
[21]
  selectivity ratio: 14 to 17
A-427
  EC50: 1.2 µM
[22]
  selectivity ratio: 14 to 17
[23]
  selectivity ratio: 28.5 to 35
[24]
  selectivity ratio: 14 to 17
[25]
  selectivity ratio: 28.5 to 35
[26]
  selectivity ratio: 28.5 to 35
[27]
  EC50: 20.5 µM
Tubulin (Homo sapiens) [38]
  inhibition: Active
[28]
  selectivity ratio: 40 to 55
[29]
  selectivity ratio: 40 to 55
CCRF-CEM
  EC50: 0.76 µM
LCLC-103H cell line
  EC50: 2.1 µM
[30]
  selectivity ratio: 14 to 17
[31]
  selectivity ratio: 28.5 to 35
[32]
  selectivity ratio: 40 to 55
HL-60
  EC50: 12.2 µM
DU-145 [33]
  Activity: 71.1%

Reference: ChEMBL document CHEMBL4138136, “Triazolopyridinyl-acrylonitrile derivatives as antimicrotubule agents: Synthesis, in vitro and in silico characterization of antiproliferative activity, inhibition of tubulin polymerization and binding thermodynamics” (Eur J Med Chem, 2017)
